“And” between values parts separate entries of the source, which are not always exact repeats. Identical values can stand only once. Inconclusive results and toxic doses are left out. Rule as the data show it: active = T/C of 150% or more; inactive = T/C below 125%.
Tested on: L1210 leukemia ip in BDF1 mice, survival T/C
Test: NCI In Vivo Anticancer Drug Screen. Data for tumor model L1210 Leukemia (intraperitoneal) in B6D2F1 (BDF1) mice
Settings: endpoint: mean survival time, higher = longer survival
Summary of the method: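 Tumor was transplanted into mice, which were then dosed with test compound or vehicle alone. Survival was recorded for each group, and the treated figure was expressed relative to the control figure.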

[1] = dose: 100.0 mg/kg/injection, schedule: Q01DX009 (ip), vehicle: Klucel (hydroxypropylcellulose) (HPC)
[2] = dose: 100.0 mg/kg/injection, schedule: Q04DX003 (ip), vehicle: Klucel (hydroxypropylcellulose) (HPC)
[3] = dose: 200.0 mg/kg/injection, schedule: Q01DX009 (ip), vehicle: Klucel (hydroxypropylcellulose) (HPC)
[4] = dose: 200.0 mg/kg/injection, schedule: Q04DX003 (ip), vehicle: Klucel (hydroxypropylcellulose) (HPC)
[5] = dose: 400.0 mg/kg/injection, schedule: Q01DX009 (ip), vehicle: Klucel (hydroxypropylcellulose) (HPC)
[6] = dose: 400.0 mg/kg/injection, schedule: Q04DX003 (ip), vehicle: Klucel (hydroxypropylcellulose) (HPC)
[7] = dose: 100.0 mg/kg/injection, schedule: Q01DX001 (ip), vehicle: saline
[8] = dose: 200.0 mg/kg/injection, schedule: Q01DX001 (ip), vehicle: saline
[9] = dose: 400.0 mg/kg/injection, schedule: Q01DX001 (ip), vehicle: saline
[10] = dose: 100.0 mg/kg/injection, schedule: Q01DX001 (ip), vehicle: Klucel (hydroxypropylcellulose) (HPC)
[11] = dose: 200.0 mg/kg/injection, schedule: Q01DX001 (ip), vehicle: Klucel (hydroxypropylcellulose) (HPC)
[12] = dose: 400.0 mg/kg/injection, schedule: Q01DX001 (ip), vehicle: Klucel (hydroxypropylcellulose) (HPC)
[13] = dose: 100.0 mg/kg/injection, schedule: Q01DX001 (ip), vehicle: other
[14] = dose: 100.0 mg/kg/injection, schedule: Q04DX002 (ip), vehicle: Klucel (hydroxypropylcellulose) (HPC)
[15] = dose: 200.0 mg/kg/injection, schedule: Q04DX002 (ip), vehicle: Klucel (hydroxypropylcellulose) (HPC)
[16] = dose: 400.0 mg/kg/injection, schedule: Q04DX002 (ip), vehicle: Klucel (hydroxypropylcellulose) (HPC)
[17] = dose: 100.0 mg/kg/injection, schedule: Q01DX009 (ip), vehicle: saline with Tween-80
[18] = dose: 100.0 mg/kg/injection, schedule: Q04DX003 (ip), vehicle: saline with Tween-80
[19] = dose: 200.0 mg/kg/injection, schedule: Q01DX009 (ip), vehicle: saline with Tween-80
[20] = dose: 200.0 mg/kg/injection, schedule: Q04DX003 (ip), vehicle: saline with Tween-80
[21] = dose: 400.0 mg/kg/injection, schedule: Q01DX009 (ip), vehicle: saline with Tween-80
[22] = dose: 400.0 mg/kg/injection, schedule: Q04DX003 (ip), vehicle: saline with Tween-80
[23] = dose: 100.0 mg/kg/injection, schedule: Q01DX009 (ip), vehicle: saline
[24] = dose: 100.0 mg/kg/injection, schedule: Q04DX003 (ip), vehicle: saline
[25] = dose: 200.0 mg/kg/injection, schedule: Q04DX003 (ip), vehicle: saline
[26] = dose: 400.0 mg/kg/injection, schedule: Q04DX003 (ip), vehicle: saline
[27] = dose: 100.0 mg/kg/injection, schedule: Q04DX002 (ip), vehicle: saline
[28] = dose: 200.0 mg/kg/injection, schedule: Q04DX002 (ip), vehicle: saline
[29] = dose: 400.0 mg/kg/injection, schedule: Q04DX002 (ip), vehicle: saline

Measured: T/C

Cc1c(N=O)c(=O)n(-c2ccccc2)n1C
inactive: [1] 94 % of control | [2] 95 % of control | [3] 97 % of control | [4] 95 % of control | [5] 110 % of control | [6] 98 % of control

CNC(=O)Nc1nc2ccc([N+](=O)[O-])cc2[nH]1
inactive: [7] 105 % of control | [8] 103 % of control | [9] 97 % of control

NS(=O)(=O)N1CCCCC1
inactive: dose: 9.5 mg/kg/injection, schedule: Q01DX001 (ip), vehicle: saline 104 % of control | dose: 19.0 mg/kg/injection, schedule: Q01DX001 (ip), vehicle: saline 104 % of control | dose: 38.0 mg/kg/injection, schedule: Q01DX001 (ip), vehicle: saline 95 % of control

[N-]=[N+]=Nc1ccc(C(=O)O)cc1
inactive: [10] 100 % of control | [11] 100 % of control | [12] 103 % of control

O=[N+]([O-])c1ccc(Cn2cnc3c(Cl)ncnc32)cc1
inactive: [13] 90 % of control

Cc1cc(N(CCCl)CCCl)ccc1C=Nc1ccc(-c2csc(Cc3ccccc3)n2)cc1
inactive: dose: 50.0 mg/kg/injection, schedule: Q01DX001 (ip), vehicle: carboxymethylcellulose (CMC) 105 % of control | dose: 100.0 mg/kg/injection, schedule: Q01DX001 (ip), vehicle: carboxymethylcellulose (CMC) 103 % of control | dose: 200.0 mg/kg/injection, schedule: Q01DX001 (ip), vehicle: carboxymethylcellulose (CMC) 116 % of control | dose: 400.0 mg/kg/injection, schedule: Q01DX001 (ip), vehicle: carboxymethylcellulose (CMC) 97 % of control

CCOC(=O)C1C(=O)C(N=Nc2ccc(-c3ccc(N=NC4C(=O)C(C(=O)OCC)C(c5ccc(O)c(OC)c5)C(C(=O)OCC)C4=O)cc3)cc2)C(=O)CC1c1ccc(O)c(OC)c1 (centres undefined)
inactive: [13] 96 % of control | dose: 200.0 mg/kg/injection, schedule: Q01DX001 (ip), vehicle: other 103 % of control

CC(C)OC(=S)SCC(=O)c1ccc([N+](=O)[O-])cc1
inactive: [14] 112 % of control | [15] 102 % of control | [16] 105 % of control

O=[N+]([O-])c1cc(Br)cc(Br)c1
inactive: [17] 97 % of control | [18] 91 % of control | [19] 99 % of control | [20] 94 % of control | [21] 93 % of control | [22] 93 % of control

CC(=O)Oc1cc(C)nc(OC(C)=O)c1
inactive: [7] 94 % of control | [8] 100 % of control | [9] 97 % of control

CCCN=C(N)C(N)=NCCC
inactive: [23] 91 % of control | [24] 98 % of control | dose: 200.0 mg/kg/injection, schedule: Q01DX009 (ip), vehicle: saline 92 % of control | [25] 98 % of control | [26] 91 % of control

C[CH2][Ge]1([CH2]C)[CH2]CC2(C[CH2]1)NC(=O)NC2=O
inactive: [27] 103 % of control | [28] 100 % of control | [29] 96 % of control

Nc1ccc(-c2ccc(N)cc2Br)c(Br)c1
inactive: [17] 99 % of control | [18] 95 % of control | [19] 105 % of control | [20] 97 % of control | [21] 88 % of control | [22] 92 % of control

c1ccc2cc3nc4ccccc4nc3cc2c1
inactive: dose: 100.0 mg/kg/injection, schedule: Q01DX001 (ip), vehicle: acetone 92 % of control | [24] 108 % of control | dose: 200.0 mg/kg/injection, schedule: Q01DX001 (ip), vehicle: acetone 97 % of control | [25] 101 % of control | dose: 400.0 mg/kg/injection, schedule: Q01DX001 (ip), vehicle: acetone 86 % of control | [26] 111 % of control

CCC(=O)C(CCCN(C)C)(c1ccccc1)c1ccccc1
inactive: dose: 5.0 mg/kg/injection, schedule: Q01DX001 (ip), vehicle: saline 107 % of control | dose: 10.0 mg/kg/injection, schedule: Q01DX001 (ip), vehicle: saline 104 % of control | dose: 20.0 mg/kg/injection, schedule: Q01DX001 (ip), vehicle: saline 93 % of control | dose: 40.0 mg/kg/injection, schedule: Q01DX001 (ip), vehicle: saline 98 % of control

ClC/C=[CH]/[Sn]([c]1ccccc1)([c]1ccccc1)[c]1ccccc1
inactive: dose: 50.0 mg/kg/injection, schedule: Q01DX009 (ip), vehicle: saline 112 % of control | [23] 116 % of control

O=C(O)CCC(NC(=O)c1ccccc1)C(=O)O (centres undefined)
inactive: [24] 100 % of control | [25] 95 % of control | [26] 95 % of control

CCCCCCC1CC(=O)CC(=O)C1
inactive: [7] 101 % of control | [8] 98 % of control | [9] 95 % of control

Cc1cc([N+](=O)[O-])cc(C)c1N=CN(C)C
inactive: dose: 50.0 mg/kg/injection, schedule: Q01DX001 (ip), vehicle: saline 107 % of control | [7] 105 % of control | [8] 122 % of control | [9] 104 % of control

CCCCCCCC(C(=O)O)C(C)C (centres undefined)
inactive: dose: 100.0 mg/kg/injection, schedule: Q01DX001 (ip), vehicle: saline with Tween-80 94 % of control | dose: 200.0 mg/kg/injection, schedule: Q01DX001 (ip), vehicle: saline with Tween-80 106 % of control | dose: 400.0 mg/kg/injection, schedule: Q01DX001 (ip), vehicle: saline with Tween-80 105 % of control

CC(C)(C)NCC1CCCC1
inactive: dose: 20.0 mg/kg/injection, schedule: Q04DX003 (ip), vehicle: saline 109 % of control | dose: 40.0 mg/kg/injection, schedule: Q04DX003 (ip), vehicle: saline 115 % of control | dose: 80.0 mg/kg/injection, schedule: Q04DX003 (ip), vehicle: saline 111 % of control

S=c1[nH]cc2cnccn12
inactive: [17] 103 % of control | [18] 98 % of control | [19] 100 % of control | [20] 100 % of control | [22] 89 % of control

CCOC(=O)C/C(C(=O)O)=C(\C)c1ccc2ccccc2c1
inactive: [10] 101 % of control | [1] 95 % of control | [11] 95 % of control | [3] 100 % of control | [12] 95 % of control | [5] 86 % of control

O=C(COc1ccc(Cl)cc1)Nc1ccccc1F
inactive: [1] 88 % of control | [2] 95 % of control | [3] 89 % of control | [4] 88 % of control | [5] 91 % of control | [6] 90 % of control

O=C(O)c1ccccc1C(=O)c1cccc2ccccc12
inactive: dose: 100.0 mg/kg/injection, schedule: Q04DX002 (ip), vehicle: gum acacia 102 % of control | dose: 200.0 mg/kg/injection, schedule: Q04DX002 (ip), vehicle: gum acacia 104 % of control | dose: 400.0 mg/kg/injection, schedule: Q04DX002 (ip), vehicle: gum acacia 95 % of control

CSC(=S)NNC(=O)c1ccc([N+](=O)[O-])cc1
inactive: dose: 6.25 mg/kg/injection, schedule: Q04DX003 (ip), vehicle: saline sonified 96 % of control | dose: 12.5 mg/kg/injection, schedule: Q04DX003 (ip), vehicle: saline sonified 98 % of control

CC(C)(C)SCCO
inactive: [27] 105 % of control | [28] 99 % of control | [29] 96 % of control

COc1ccc(C2OCC(C)([N+](=O)[O-])CO2)cc1 (centres undefined)
inactive: dose: 50.0 mg/kg/injection, schedule: Q01DX001 (ip), vehicle: Klucel (hydroxypropylcellulose) (HPC) 94 % of control | dose: 50.0 mg/kg/injection, schedule: Q04DX002 (ip), vehicle: Klucel (hydroxypropylcellulose) (HPC) 103 % of control | [10] 96 % of control | [14] 96 % of control and 102 % of control | [11] 98 % of control | [15] 96 % of control and 100 % of control | [12] 98 % of control | [16] 99 % of control and 121 % of control
